Results taken from US12539292B2, “BRM targeting compounds and associated methods of use” (Arvinas Operations, Inc., priority 2018, dated 2026).
Where two headings read alike, the source gives them in different places.

Target: T1, BRM (Homo sapiens, UniProt P51531)
T1 construct: In-Cell Western Screen of BRM Degradation in SW1573 Cells; endogenous in cells; host or cells: SW1573
Test: In-cell Western screen of BRM degradation in SW1573 cells (Dmax and DC50)
Type: cell-based
In short: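 Overnight compound treatment (18-20 h, final DMSO 0.1%) of SW1573 cells in DMEM with 10% FBS precedes fixation and in-cell Western staining with 800/680 nm dye-labelled secondaries. Plate images give DC50 and maximal degradation.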

[1] = BRM degradation, SW1573 cells, read-out: DC50
[2] = BRM degradation, SW1573 cells, tested at the top concentration of between 0.3 and 10 μM, read-out: Dmax (%) (% degraded)
[3] = BRM degradation, SW1573 cells, Table 2D, read-out: **Dmax (%) (% degraded)
[4] = BRM degradation, SW1573 cells, Table 2D, read-out: *DC50
[5] = SW1573, % degraded, when tested at the top concentration of between 0.3 and 10 μM, read-out: BRM Dmax (%)
[6] = target protein degradation, read-out: BRM DC50

T1 sequence (P51531 whole entry): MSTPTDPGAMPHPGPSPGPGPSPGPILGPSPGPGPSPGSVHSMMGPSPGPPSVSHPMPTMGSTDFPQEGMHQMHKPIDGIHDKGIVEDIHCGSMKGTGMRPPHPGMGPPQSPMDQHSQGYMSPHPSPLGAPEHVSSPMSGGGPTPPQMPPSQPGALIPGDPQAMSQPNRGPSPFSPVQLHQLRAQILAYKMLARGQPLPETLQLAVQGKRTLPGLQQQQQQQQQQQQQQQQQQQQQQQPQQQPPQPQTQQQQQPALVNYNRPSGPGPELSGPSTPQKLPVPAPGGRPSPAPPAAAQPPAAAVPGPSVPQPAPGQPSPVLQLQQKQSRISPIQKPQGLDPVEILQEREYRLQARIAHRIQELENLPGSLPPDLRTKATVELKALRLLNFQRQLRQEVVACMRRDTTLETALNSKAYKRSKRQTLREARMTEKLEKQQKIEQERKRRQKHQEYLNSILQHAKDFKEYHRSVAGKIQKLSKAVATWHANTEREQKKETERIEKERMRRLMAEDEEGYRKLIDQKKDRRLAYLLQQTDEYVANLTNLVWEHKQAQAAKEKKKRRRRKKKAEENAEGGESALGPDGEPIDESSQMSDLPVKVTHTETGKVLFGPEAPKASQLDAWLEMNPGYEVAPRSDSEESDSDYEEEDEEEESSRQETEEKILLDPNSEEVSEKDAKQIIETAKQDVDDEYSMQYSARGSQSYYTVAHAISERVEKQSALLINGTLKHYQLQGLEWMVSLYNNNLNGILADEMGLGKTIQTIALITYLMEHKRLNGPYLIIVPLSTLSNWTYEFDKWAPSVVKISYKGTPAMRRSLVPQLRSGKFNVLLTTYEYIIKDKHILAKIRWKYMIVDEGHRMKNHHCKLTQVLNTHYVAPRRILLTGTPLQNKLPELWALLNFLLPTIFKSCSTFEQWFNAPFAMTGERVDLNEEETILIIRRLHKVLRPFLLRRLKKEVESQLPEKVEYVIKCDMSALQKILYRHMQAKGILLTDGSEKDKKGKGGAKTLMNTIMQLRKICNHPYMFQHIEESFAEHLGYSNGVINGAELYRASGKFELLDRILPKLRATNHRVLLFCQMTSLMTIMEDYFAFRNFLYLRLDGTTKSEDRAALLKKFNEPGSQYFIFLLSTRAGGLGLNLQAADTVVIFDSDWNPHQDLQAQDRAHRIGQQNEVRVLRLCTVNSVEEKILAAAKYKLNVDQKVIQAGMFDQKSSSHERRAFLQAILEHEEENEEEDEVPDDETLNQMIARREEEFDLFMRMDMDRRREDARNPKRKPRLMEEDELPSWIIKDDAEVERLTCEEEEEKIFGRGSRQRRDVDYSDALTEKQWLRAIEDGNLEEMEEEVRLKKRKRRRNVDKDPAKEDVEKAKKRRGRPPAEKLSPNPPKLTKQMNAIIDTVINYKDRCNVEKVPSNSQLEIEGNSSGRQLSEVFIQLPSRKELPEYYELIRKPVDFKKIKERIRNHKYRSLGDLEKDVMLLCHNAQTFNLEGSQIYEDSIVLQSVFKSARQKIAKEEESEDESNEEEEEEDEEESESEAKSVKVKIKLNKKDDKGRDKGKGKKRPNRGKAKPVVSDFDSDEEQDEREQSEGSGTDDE

SMILES: Cc1ncsc1-c1ccc([C@H](C)NC(=O)[C@@H]2C[C@@H](O)CN2C(=O)[C@@H](c2cc(N3CCC(CN4CCC(O[C@H]5C[C@H](C#CC(C)N6CCOC7(CCN(c8cc(-c9ccccc9O)nnc8N)CC7)C6)C5)CC4)CC3)no2)C(C)C)cc1 (stereo partly drawn) [compound 707, (2S,4R)-1-((2R)-2-(3-(4-((4-((1r,3r)-3-(3-(9-(3-amino-6-(2-hydroxyphenyl)pyridazin-4-yl)-1-oxa-4,9-diazaspiro[5.5]undecan-4-yl)but-1-yn-1-yl)cyclobutoxy)piperidin-1-yl)methyl)piperidin-1-yl)isoxazol-5-yl)-3-methylbutanoyl)-4-hydroxy-N-((S)-1-(4-(4-methylthiazol-5-yl)phenyl)ethyl)pyrrolidine-2-carboxamide]
- DC50 [1]: < 2.5 nM
- Dmax (BRM degradation, SW1573 cells, read-out: Dmax (% degraded)): > 75%

SMILES: Cc1ncsc1-c1ccc([C@H](C)NC(=O)[C@@H]2C[C@@H](O)CN2C(=O)[C@H](c2cc(OCCCc3ccc(C(C)n4cc(-c5cc(-c6ccccc6O)nnc5N)cn4)cc3)no2)C(C)C)cc1 (stereo partly drawn) [compound 59, (2S,4R)-1-((2S)-2-(3-(3-(4-(1-(4-(3-amino-6-(2-hydroxyphenyl)pyridazin-4-yl)-1H-pyrazol-1-yl)ethyl)phenyl)propoxy)isoxazol-5-yl)-3-methylbutanoyl)-4-hydroxy-N-((S)-1-(4-(4-methylthiazol-5-yl)phenyl)ethyl)pyrrolidine-2-carboxamide]
- DC50 [1]: > 30 nM
- Dmax (BRM degradation, SW1573 cells, when tested at the top concentration of between 0.3 and 10 μM, read-out: Dmax (%) (% degraded)): > 75%

SMILES: Cc1ncsc1-c1ccc([C@H](C)NC(=O)[C@@H]2C[C@@H](O)CN2C(=O)[C@H](c2cc(OCCN3CCC(O[C@H]4C[C@H](Oc5cc(N6C7CCC6CN(c6cc(-c8ccccc8O)nnc6N)C7)ccn5)C4)CC3)no2)C(C)C)c(F)c1 [compound 239, (2S,4R)-1-((2S)-2-(3-(2-(4-((1r,3S)-3-((4-(3-(3-amino-6-(2-hydroxyphenyl)pyridazin-4-yl)-3,8-diazabicyclo[3.2.1]octan-8-yl)pyridin-2-yl)oxy)cyclobutoxy)piperidin-1-yl)ethoxy)isoxazol-5-yl)-3-methylbutanoyl)-N-((S)-1-(2-fluoro-4-(4-methylthiazol-5-yl)phenyl)ethyl)-4-hydroxypyrrolidine-2-carboxamide]
- DC50 [1]: > 30 nM
- Dmax [2]: > 75%

SMILES: Cc1ncsc1-c1cc(F)c([C@H](C)NC(=O)[C@@H]2C[C@@H](O)CN2C(=O)[C@H](c2cc(OCCC3CCN(C[C@H]4C[C@H](Oc5cc(N6C7CCC6CN(c6cc(-c8ccccc8O)nnc6N)C7)ccn5)C4)CC3)no2)C(C)C)cc1F [compound 551, (2S,4R)-1-((2S)-2-(3-(2-(1-(((1r,3S)-3-((4-(3-(3-amino-6-(2-hydroxyphenyl)pyridazin-4-yl)-3,8-diazabicyclo[3.2.1]octan-8-yl)pyridin-2-yl)oxy)cyclobutyl)methyl)piperidin-4-yl)ethoxy)isoxazol-5-yl)-3-methylbutanoyl)-N-((S)-1-(2,5-difluoro-4-(4-methylthiazol-5-yl)phenyl)ethyl)-4-hydroxypyrrolidine-2-carboxamide]
- Dmax [3]: > 75%
- DC50 [4]: < 2.5 nM

SMILES: Cc1ncsc1-c1ccc([C@H](C)NC(=O)[C@@H]2C[C@@H](O)CN2C(=O)[C@@H](c2cc(OCCN3CCC(O[C@H]4C[C@H](Oc5cc(N6C7CCC6CN(c6cc(-c8ccccc8OP(=O)(O)O)nnc6N)C7)ccn5)C4)CC3)no2)C(C)C)cc1 [compound 506, 2-(6-amino-5-(8-(2-((1R,3r)-3-((1-(2-((5-((R)-1-((2S,4R)-4-hydroxy-2-(((S)-1-(4-(4-methylthiazol-5-yl)phenyl)ethyl)carbamoyl)pyrrolidin-1-yl)-3-methyl-1-oxobutan-2-yl)isoxazol-3-yl)oxy)ethyl)piperidin-4-yl)oxy)cyclobutoxy)pyridin-4-yl)-3,8-diazabicyclo[3.2.1]octan-3-yl)pyridazin-3-yl)phenyl dihydrogen phosphate]
- DC50 (BRM degradation, read-out: BRM DC50): < 2.5 nM
- Dmax [5]: > 75%

SMILES: Cc1ncsc1-c1ccc([C@H](C)NC(=O)[C@@H]2C[C@@H](O)CN2C(=O)[C@@H](c2cc(OCCN3CCC(OC4CN(c5cc(N6C7CCC6CN(c6cc(-c8ccccc8O)nnc6N)C7)ccn5)C4)CC3)no2)C(C)C)cc1 [compound 355, (2S,4R)-1-((2R)-2-(3-(2-(4-((1-(4-(3-(3-amino-6-(2-hydroxyphenyl)pyridazin-4-yl)-3,8-diazabicyclo[3.2.1]octan-8-yl)pyridin-2-yl)azetidin-3-yl)oxy)piperidin-1-yl)ethoxy)isoxazol-5-yl)-3-methylbutanoyl)-4-hydroxy-N-((S)-1-(4-(4-methylthiazol-5-yl)phenyl)ethyl)pyrrolidine-2-carboxamide]
- Dmax [5]: > 75%
- DC50 [6]: < 2.5 nM

SMILES: Cc1ncsc1-c1ccc([C@H](C)NC(=O)[C@@H]2C[C@@H](O)CN2C(=O)[C@H](c2cc(OCCN3CCN(CCOc4cc(N5C6CCC5CN(c5cc(-c7ccccc7O)nnc5N)C6)ccn4)CC3)no2)C(C)C)cn1 [compound 160, (2S,4R)-1-((2S)-2-(3-(2-(4-(2-((4-(3-(3-amino-6-(2-hydroxyphenyl)pyridazin-4-yl)-3,8-diazabicyclo[3.2.1]octan-8-yl)pyridin-2-yl)oxy)ethyl)piperazin-1-yl)ethoxy)isoxazol-5-yl)-3-methylbutanoyl)-4-hydroxy-N-((S)-1-(6-(4-methylthiazol-5-yl)pyridin-3-yl)ethyl)pyrrolidine-2-carboxamide]
- DC50 [1]: > 30 nM
- Dmax [2]: > 75%

SMILES: Cc1ncsc1-c1ccc([C@H](C)NC(=O)[C@@H]2C[C@@H](O)CN2C(=O)[C@H](c2cc(OCCN3CCC(O[C@H]4C[C@H](Oc5cc(N6C7CCC6CN(c6cc(-c8ccccc8O)nnc6N)C7)ccn5)C4)CC3)no2)C(C)C)cn1 [compound 179, (2S,4R)-1-((2S)-2-(3-(2-(4-((1r,3S)-3-((4-(3-(3-amino-6-(2-hydroxyphenyl)pyridazin-4-yl)-3,8-diazabicyclo[3.2.1]octan-8-yl)pyridin-2-yl)oxy)cyclobutoxy)piperidin-1-yl)ethoxy)isoxazol-5-yl)-3-methylbutanoyl)-4-hydroxy-N-((S)-1-(6-(4-methylthiazol-5-yl)pyridin-3-yl)ethyl)pyrrolidine-2-carboxamide]
- DC50 [1]: > 30 nM

SMILES: Cc1ncsc1-c1ccc([C@H](C)NC(=O)[C@@H]2C[C@@H](O)CN2C(=O)[C@@H](c2cc(OCC(F)(F)CN3CCC(O[C@H]4C[C@H](Oc5cc(N6C7CCC6CN(c6cc(-c8ccccc8O)nnc6N)C7)ccn5)C4)CC3)no2)C(C)C)cc1 [compound 484, (2S,4R)-1-((2R)-2-(3-(3-(4-((1r,3R)-3-((4-(3-(3-amino-6-(2-hydroxyphenyl)pyridazin-4-yl)-3,8-diazabicyclo[3.2.1]octan-8-yl)pyridin-2-yl)oxy)cyclobutoxy)piperidin-1-yl)-2,2-difluoropropoxy)isoxazol-5-yl)-3-methylbutanoyl)-4-hydroxy-N-((S)-1-(4-(4-methylthiazol-5-yl)phenyl)ethyl)pyrrolidine-2-carboxamide]
- Dmax [5]: > 75%
- DC50 [6]: < 2.5 nM

SMILES: Cc1ncsc1-c1ccc([C@H](C)NC(=O)[C@@H]2C[C@@H](O)CN2C(=O)[C@@H](c2cc(N3CCC(CN4CCC(Oc5cc(N6C7CCC6CN(c6cc(-c8ccccc8O)nnc6N)C7)ccn5)CC4)CC3)no2)C(C)C)cc1 [compound 602, (2S,4R)-1-((2R)-2-(3-(4-((4-((4-(3-(3-amino-6-(2-hydroxyphenyl)pyridazin-4-yl)-3,8-diazabicyclo[3.2.1]octan-8-yl)pyridin-2-yl)oxy)piperidin-1-yl)methyl)piperidin-1-yl)isoxazol-5-yl)-3-methylbutanoyl)-4-hydroxy-N-((S)-1-(4-(4-methylthiazol-5-yl)phenyl)ethyl)pyrrolidine-2-carboxamide]
- Dmax [3]: > 75%
- DC50 [4]: < 2.5 nM

SMILES: Cc1nccn1-c1ccc([C@H](C)NC(=O)[C@@H]2C[C@@H](O)CN2C(=O)[C@H](c2cc(N3CCN(C[C@H]4C[C@H](Oc5cc(N6C7CCC6CN(c6cc(-c8ccccc8O)nnc6N)C7)ccn5)C4)CC3)no2)C(C)C)cc1 [compound 575, (2S,4R)-1-((2S)-2-(3-(4-(((1r,3S)-3-((4-(3-(3-amino-6-(2-hydroxyphenyl)pyridazin-4-yl)-3,8-diazabicyclo[3.2.1]octan-8-yl)pyridin-2-yl)oxy)cyclobutyl)methyl)piperazin-1-yl)isoxazol-5-yl)-3-methylbutanoyl)-4-hydroxy-N-((S)-1-(4-(2-methyl-1H-imidazol-1-yl)phenyl)ethyl)pyrrolidine-2-carboxamide]
- Dmax [3]: 50 to 75%
- DC50 [4]: 10 to 30 nM

SMILES: COc1nc(-c2scnc2C)ccc1[C@H](C)NC(=O)[C@@H]1C[C@@H](O)CN1C(=O)[C@@H](c1cc(OCCN2CCC(O[C@H]3C[C@H](Oc4cc(N5C6CCC5CN(c5cc(-c7ccccc7O)nnc5N)C6)ccn4)C3)CC2)no1)C(C)C [compound 279, (2S,4R)-1-((2R)-2-(3-(2-(4-((1r,3R)-3-((4-(3-(3-amino-6-(2-hydroxyphenyl)pyridazin-4-yl)-3,8-diazabicyclo[3.2.1]octan-8-yl)pyridin-2-yl)oxy)cyclobutoxy)piperidin-1-yl)ethoxy)isoxazol-5-yl)-3-methylbutanoyl)-4-hydroxy-N-((S)-1-(2-methoxy-6-(4-methylthiazol-5-yl)pyridin-3-yl)ethyl)pyrrolidine-2-carboxamide]
- DC50 [1]: < 2.5 nM
- Dmax [2]: > 75%
